Key:
TRa2 = test: Glycosyl donor selectivity of TRa2; type: biochemical, Trichoderma viride; details: under the conditions shown in the Example section
From the text: Moreover, this enzyme is a glycosyltransferase capable of producing not only sugars composed of one or two glucose molecules, but also glycosides whose sugar chain length is three (G3) or more glucose molecules.

[1] = Heat stability of glycoside (% remaining, HPLC); type: physicochemical; details: 100 μM in 10 mM potassium phosphate buffer pH 7.0, 4° C. to 100° C., 0 to 4 hours
Method: After 10 mM potassium phosphate buffer (pH 7.0, 30 μl) containing 100 μM (+)-catechin or 4′-O-α-D-glucopyranosyl-(+)-catechin was treated at different temperatures ranging from 4° C. to 100° C. for 0 to 4 hours, each sample was transferred on ice and mixed with 0.1% TFA (60 μl), followed by HPLC analysis in the same manner as shown in Example 1.

[2] = Solubility in water (HPLC quantification of supernatant); type: physicochemical; details: added to water at 10 to 450 mg/ml, vigorous stirring, centrifugation

Structure (SMILES) | use as glycosyl donor by TRa2 (TRa2) | also measured
OC[C@H]1O[C@H](O[C@H]2[C@H](O)[C@@H](O)C(O)O[C@@H]2CO)[C@H](O)[C@@H](O)[C@@H]1O (mixture of isomers) [maltose] | does not target | –
OC[C@H]1O[C@H](Oc2ccc([C@H]3Oc4cc(O)cc(O)c4C[C@@H]3O)cc2O)[C@H](O)[C@@H](O)[C@@H]1O [4′-O-α-D-glucopyranosyl-(+)-catechin] | – | heat stability (% remaining) compared with catechin [1]: more stable against heat than catechin
OC[C@H]1O[C@@H]2O[C@H]3[C@H](O)[C@@H](O)[C@@H](O[C@H]4[C@H](O)[C@@H](O)[C@@H](O[C@H]5[C@H](O)[C@@H](O)[C@@H](O[C@H]6[C@H](O)[C@@H](O)[C@@H](O[C@H]7[C@H](O)[C@@H](O)[C@@H](O[C@H]1[C@H](O)[C@H]2O)O[C@@H]7CO)O[C@@H]6CO)O[C@@H]5CO)O[C@@H]4CO)O[C@@H]3CO [α-cyclodextrin] | does not target | –
O=C[C@H](O)[C@@H](O)[C@H](O[C@@H]1O[C@H](CO)[C@@H](O)[C@H](O)[C@H]1O)[C@H](O)CO [cellobiose] | does not target | –
OC[C@H]1O[C@H](Oc2cc(O)cc3c2C[C@H](O)[C@@H](c2ccc(O)c(O)c2)O3)[C@H](O)[C@@H](O)[C@@H]1O [5-O-α-D-glucopyranosyl-(+)-catechin] | – | solubility in water relative to (+)-catechin [2]: at least 40 fold
OC[C@H]1O[C@@H]2O[C@H]3[C@H](O)[C@@H](O)[C@@H](O[C@H]4[C@H](O)[C@@H](O)[C@@H](O[C@H]5[C@H](O)[C@@H](O)[C@@H](O[C@H]6[C@H](O)[C@@H](O)[C@@H](O[C@H]7[C@H](O)[C@@H](O)[C@@H](O[C@H]8[C@H](O)[C@@H](O)[C@@H](O[C@H]1[C@H](O)[C@H]2O)O[C@@H]8CO)O[C@@H]7CO)O[C@@H]6CO)O[C@@H]5CO)O[C@@H]4CO)O[C@@H]3CO [β-cyclodextrin] | does not target | –
Oc1cc(O)c2c(c1)O[C@H](c1ccc(O)c(O)c1)[C@@H](O)C2 [(+)-catechin] | – | solubility in water [2]: substantially insoluble in water

Source: patent US8383384B2, “Polypeptide having glycosylation activity on a flavonoid” (Suntory Holdings Limited, priority 2007, dated 2013)
